From patent US20160166700A1, “METHOD FOR AMELIORATING LIVER FIBROSIS BY USING NANOPARTICLE CONTAINING TYROSINE KINASE INHIBITOR” (National Tsing Hua University, priority 2014, published 2016)

What was measured:
[1] = Pharmacokinetics of injected C6-loaded nanoparticle composition (C6 in blood); format: in vivo, C3H mice; details: 0.5 to 1 hour after injection; 0.1 mg/kg tail intravenous injection; FIG. 6
Procedure: C6 was injected to C3H mice with or without the nanoparticle encapsulation at a dosage of 0.1 mg/kg via tail intravenous injection. 40 μL of blood from the tail artery of the mice were collected and mixed with ethylenediaminetetraacetic acid (EDTA) at different period of time. Fluorescence intensity was measured under an excitation wavelength of 485 nm and an emission wavelength of 538 nm. Standard curves of the C6 or C6-loaded PLGA nanoparticle composition in blood were used to calculate the content of C6 in mice.

[2] = test system: hepatic stellate cell (HSC); format: cell-based; details: HSCs; MTT after 48 or 72 hours; FIG. 5B
Procedure: The HSC was purchased from ScienCell Research Laboratories (#5300, San Diego, Calif., USA) and the HUVEC was obtained from Bioresource Collection and Research Center, Food Industry Research and Development Institute (BCRC number: H-UV001, Hsinchu, Taiwan). Firstly, HUVECs and HSCs were planted in 96-well plates at a density of 2,000 cells/well and were left overnight for adhesion. Then, different forms of sorafenib or drug carriers were added. After 48 or 72 hours, 3-(4, 5-cimethylthiazol-2-yl)-2, 5-diphenyl tetrazolium bromide (MTT), which dissolved in PBS, was added to each well and the cells were further incubated at 37° C. for 3 hours. Finally, to each well, 50 μL of DMSO were added and a spectrophotometer was used to analyze the result at a wavelength of 570 nm. […] In addition, cells without any treatment served as Vehicle Group, while cells treated with free sorafenib served as Positive Control Group. […] Meanwhile, according to the results of cell viability of the cells treated with the PEG-PLGA particle alone (Negative Control Group 1) and PEG-PLGA/PLGA nanoparticle composition alone (Negative Control Group 2), it is confirmed that the PEG-PLGA and PEG-PLGA/PLGA co-polymer are non-cytotoxic and will not result in death of the target cells.

[3] = test system: α-smooth muscle actin (α-SMA); assay: α-SMA expression (western blotting) as indicator for HSC activation in treated mice; format: in vivo; details: FIG. 9A
From the text: The expression of α-smooth muscle actin (α-SMA) is an indicator for HSC activation.

collagen I = assay: Extracellular matrix (collagen I) content in fibrotic liver of treated mice; format: in vivo; details: FIG. 9C
From the text: Collagen is the most abundant protein in not only the human body but also the extracellular matrix.

Structure (SMILES): CCN(CC)c1ccc2cc(-c3nc4ccccc4s3)c(=O)oc2c1 [C6 alone, Coumarin 6]
- C6 concentration in blood [1]: about 1%

Structure (SMILES): CNC(=O)c1cc(Oc2ccc(NC(=O)Nc3ccc(Cl)c(C(F)(F)F)c3)cc2)ccn1 [free sorafenib, sorafenib]
- cell viability [2]: about 75%
- α-SMA expression (western blotting) [3]: suppressed
- extracellular matrix in fluorescent microscopic image (illuminated regions) (collagen I): not noteworthy
